Test results: the supplement of paper PMC6045584
± gives the standard deviation of the averaged measurements.

compound: CO[C@H]1C[C@@H]2CC[C@@H](C)[C@@](O)(O2)C(=O)C(=O)N2CCCC[C@H]2C(=O)O[C@H]([C@H](C)C[C@@H]2CC[C@@H](OCCO)[C@H](OC)C2)CC(=O)[C@H](C)/C=C(\C)[C@@H](O)[C@@H](OC)C(=O)[C@H](C)C[C@H](C)/C=C/C=C/C=C/1C [EVEROLIMUS]; experiment: surviving fraction relative to DMSO-only wells; higher = less growth inhibition; conditions: 50 nM; exposure time: 5 days
In short: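 Lines were retained only if, across three screens, replicate Pearson r was >0.7 and median Z' was >0.3. Viability was measured as CellTiter-Glo luminescence and reported as surviving fraction relative to the median of DMSO-only wells. Readings followed 10 minutes at room temperature, after log-phase tumour cells seeded at 250–500 per well in 384-well plates had been exposed, from 24 hours after seeding, continuously for five days to inhibitors at 0.5, 1, 5, 10, 50, 100, 500 and 1000 nM.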

Test System | surviving fraction
22RV1 PROSTATE | 0.515 ± 0.24
93VU HEADNECK | 0.85 ± 0.051
143B BONE | 0.8355 ± 0.00071
A549 LUNG | 0.855 ± 0.041
ASKA SYNOVIAL | 0.612 ± 0.022
BT20 BREAST | 0.353 ± 0.015
BT549 BREAST | 0.4507 ± 0.0023
CADOES1 SOFT TISSUE | 0.309 ± 0.036
CAL51 BREAST | 0.332 ± 0.029
CAL120 BREAST | 0.463 ± 0.007
CASKI CERVIX | 0.446 ± 0.021
CHLA90 AUTONOMIC GANGLIA | 0.372 ± 0.066
CME SYNOVIAL | 0.885 ± 0.096
COLO320DM LARGE INTESTINE | 0.742 ± 0.017
DU4475 BREAST | 0.108 ± 0.031
H23 LUNG | 0.488 ± 0.022
HCC38 BREAST | 0.795 ± 0.08
HCC70 BREAST | 0.536 ± 0.052
HCC78 LUNG | 0.621 ± 0.1
HCC202 BREAST | 0.383 ± 0.093

Test System | surviving fraction
HCC1806 BREAST | 0.784 ± 0.095
HCC1954 BREAST | 0.321 ± 0.014
HCT15 LARGE INTESTINE | 0.512 ± 0.055
HELA CERVIX | 1.15 ± 0.023
HMLE3 BREAST | 0.455 ± 0.063
HMT3552 BREAST | 0.649 ± 0.016
HOS BONE | 0.763 ± 0.011
HOSMNG BONE | 1 ± 0.07
HS57T BREAST | 0.447 ± 0.024
HS578T BREAST | 0.563 ± 0.08
HSSYII SYNOVIAL | 0.476 ± 0.011
HT1080 SOFT TISSUE | 0.496 ± 0.019
HU09 BONE | 0.49 ± 0.011
JIMT1 BREAST | 0.56 ± 0.034
JURKAT HAEMATOPOIETIC AND LYMPHOID TISSUE | 0.433 ± 0.029
KPD BONE | 0.408 ± 0.025
LM7 BONE | 0.77 ± 0.085
MCF7 BREAST | 0.527 ± 0.011
MDAMB134 BREAST | 0.616 ± 0.1
MDAMB157 BREAST | 0.634 ± 0.05

same assay, conditions: 100 nM; exposure time: 5 days

Test System | surviving fraction
22RV1 PROSTATE | 0.374 ± 0.032
93VU HEADNECK | 0.767 ± 0.11
143B BONE | 0.825 ± 0.029
A549 LUNG | 0.826 ± 0.048
ASKA SYNOVIAL | 0.576 ± 0.051
BT20 BREAST | 0.369 ± 0.02
BT549 BREAST | 0.418 ± 0.05
CADOES1 SOFT TISSUE | 0.344 ± 0.098
CAL51 BREAST | 0.283 ± 0.011
CAL120 BREAST | 0.45 ± 0.021
CASKI CERVIX | 0.389 ± 0.043
CHLA90 AUTONOMIC GANGLIA | 0.404 ± 0.091
CME SYNOVIAL | 0.828 ± 0.066
COLO320DM LARGE INTESTINE | 0.779 ± 0.037
DU4475 BREAST | 0.125 ± 0.03
H23 LUNG | 0.482 ± 0.034
HCC38 BREAST | 0.888 ± 0.033
HCC70 BREAST | 0.543 ± 0.019
HCC78 LUNG | 0.599 ± 0.18
HCC202 BREAST | 0.471 ± 0.1

Test System | surviving fraction
HCC1806 BREAST | 0.859 ± 0.083
HCC1954 BREAST | 0.308 ± 0.016
HCT15 LARGE INTESTINE | 0.511 ± 0.059
HELA CERVIX | 1.14 ± 0.058
HMLE3 BREAST | 0.402 ± 0.036
HMT3552 BREAST | 0.616 ± 0.049
HOS BONE | 0.766 ± 0.012
HOSMNG BONE | 1.05 ± 0.1
HS57T BREAST | 0.44 ± 0.042
HS578T BREAST | 0.545 ± 0.048
HSSYII SYNOVIAL | 0.462 ± 0.025
HT1080 SOFT TISSUE | 0.48 ± 0.029
HU09 BONE | 0.42 ± 0.011
JIMT1 BREAST | 0.55 ± 0.03
JURKAT HAEMATOPOIETIC AND LYMPHOID TISSUE | 0.396 ± 0.034
KPD BONE | 0.384 ± 0.017
LM7 BONE | 0.752 ± 0.046
MCF7 BREAST | 0.505 ± 0.012
MDAMB134 BREAST | 0.688 ± 0.11
MDAMB157 BREAST | 0.712 ± 0.052
